# Reference: patent US6274715A, “Tricyclic erythromycin derivatives” (priority 1997, dated 2001)
# Key:
# Format in all cases: cell-based
# [1] = system: STAPHYLOCOCCUS AUREUS CMX 553; test: In vitro antibacterial activity, MIC, BHI agar dilution; settings: S. aureus CMX 553, unit assumed
# [2] = system: PSEUDOMONAS AERUGINOSA DPHD-2862; test: as above; settings: P. aeruginosa DPHD-2862, unit assumed
# [3] = system: STAPHYLOCOCCUS AUREUS CMX 642A; test: as above; settings: S. aureus CMX 642A, unit assumed
# [4] = system: STREPTOCOCCUS BOVIS A-5169; test: as above; settings: S. bovis A-5169, unit assumed
# [5] = system: ESCHERICHIA COLI KNK 437; settings: E. coli KNK 437; BHI agar; unit assumed
# [6] = system: ESCHERICHIA COLI JUHL; settings: E. coli JUHL; BHI agar; unit assumed
# [7] = system: STAPHYLOCOCCUS EPIDERMIDIS 3519; settings: S. epidermidis 3519; BHI agar; unit assumed
# [8] = system: ESCHERICHIA COLI DC-2; test: In vitro antibacterial activity, MIC, BHI agar dilution; settings: E. coli DC-2, unit assumed
# [9] = system: PSEUDOMONAS AERUGINOSA 5007; test: as above; settings: P. aeruginosa 5007, unit assumed
# [10] = system: EN[…] ATCC 8043; test: as above; settings: E. faecium ATCC 8043, unit assumed
# Procedure, shortened: (§1)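 Twelve successive aqueous dilutions of compound in Brain Heart Infusion agar were inoculated with 1:100 culture dilutions (1:10 for slow growers such as Micrococcus, Streptococcus) by Steers replicator and incubated at 35-37° C for 20 to 24 hours. MIC was the lowest concentration giving no growth, slight haze or sparse colonies versus drug-free control.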
# [11] = system: M[…] ATCC 9341; test: as above; settings: M. luteus ATCC 9341, unit assumed
# Procedure, shortened: as §1
# [12] = system: M[…] ATCC 4698; test: as above; settings: M. luteus ATCC 4698, unit assumed
# Procedure, shortened: as §1
# [13] = system: STR[…] 508; test: as above; settings: S. agalactiae CMX 508, unit assumed
# Procedure, shortened: as §1
# [14] = system: ESCHERICHIA COLI SS; test: as above; settings: E. coli SS, unit assumed
# [15] = system: CANDIDA ALBICANS CCH 442; test: as above; settings: C. albicans CCH 442, unit assumed
# [16] = system: STREPTOCOCCUS PYOGENES PIU 2548; test: as above; settings: S. pyogenes PIU 2548, unit assumed
# [17] = system: PSEUDOMONAS AERUGINOSA DPHD-5263; test: as above; settings: P. aeruginosa DPHD-5263, unit assumed
# [18] = system: STREPTOCOCCUS PYOGENES EES61; test: as above; settings: S. pyogenes EES61, unit assumed
# [19] = system: MYCOBACTERIUM SMEGMATIS ATCC 114; test: as above; settings: M. smegmatis ATCC 114, unit assumed
# [20] = system: PSEUDOMONAS AERUGINOSA K799/WT; test: as above; settings: P. aeruginosa K799/WT, unit assumed
# [21] = system: STAPHYLOCOCCUS AUREUS ATCC 6538P; test: as above; settings: S. aureus ATCC 6538P, 35-37° C., 20 to 24 hours, unit assumed
# [22] = system: PSEUDOMONAS AERUGINOSA BMH10; test: as above; settings: P. aeruginosa BMH10, unit assumed
# [23] = system: ENTEROBACTER AEROGENES ATCC 13048; test: as above; settings: E. aerogenes ATCC 13048, unit assumed
# [24] = system: PSEUDOMONAS AERUGINOSA K799/61; test: as above; settings: P. aeruginosa K799/61, unit assumed
# [25] = system: PROVIDENCIA STUARTII CMX 640; settings: P. stuartii CMX 640; BHI agar; unit assumed
# [26] = system: STAPHYLOCOCCUS AUREUS NCTC10649M; test: In vitro antibacterial activity, MIC, BHI agar dilution; settings: S. aureus NCTC10649M, unit assumed
# [27] = system: PSEUDOMONAS CEPACIA 296I; test: as above; settings: P. cepacia 296I, unit assumed
# [28] = system: STREPTOCOCCUS PYOGENES 930; test: as above; settings: S. pyogenes 930, unit assumed
# [29] = system: STAPHYLOCOCCUS AUREUS 1775; test: as above; settings: S. aureus 1775, unit assumed
# [30] = system: KLEBSIELLA PNEUMONIAE ATCC 8045; test: as above; settings: K. pneumoniae ATCC 8045, unit assumed
# [31] = system: STAPHYLOCOCCUS AUREUS A-5278; test: as above; settings: S. aureus A-5278, unit assumed
# [32] = system: ESCHERICHIA COLI H560; test: as above; settings: E. coli H560, unit assumed
# [33] = system: ACINETOBACTER CALCOACETICUS CMX 669; test: as above; settings: A. calcoaceticus CMX 669, unit assumed
compound,measurement,setting,value
CC[C@H]1OC(=O)[C@H](C)C(=O)[C@H](C)[C@@H](O[C@@H]2O[C@H](C)C[C@H](N(C)C)[C@H]2O)[C@](C)(OC)C[C@@H](C)C2=N[C@H](COCc3ccccc3Cl)CN3C(=O)O[C@@]1(C)[C@H]3[C@H]2C [Example 78],MIC,[1],0.78 µg/mL
same,MIC,[2],> 100 µg/mL
same,MIC,[3],0.78 µg/mL
same,MIC,[4],≤ 0.005 µg/mL
same,MIC,[5],> 100 µg/mL
same,MIC,[6],> 100 µg/mL
same,MIC,[7],0.39 µg/mL
same,MIC,[8],> 100 µg/mL
same,MIC,[9],> 100 µg/mL
same,MIC,[10],0.05 µg/mL
same,MIC,[11],0.02 µg/mL
same,MIC,[12],0.39 µg/mL
same,MIC,[13],≤ 0.005 µg/mL
same,MIC,[14],1.56 µg/mL
same,MIC,[15],100 µg/mL
same,MIC,[16],0.2 µg/mL
same,MIC,[17],> 100 µg/mL
same,MIC,[18],≤ 0.005 µg/mL
same,MIC,[19],0.78 µg/mL
same,MIC,[20],> 100 µg/mL
same,MIC,[21],0.39 µg/mL
same,MIC,[22],> 100 µg/mL
same,MIC,[23],> 100 µg/mL
same,MIC,[24],3.1 µg/mL
same,MIC,[25],> 100 µg/mL
same,MIC,[26],0.39 µg/mL
same,MIC,[27],> 100 µg/mL
same,MIC,[28],25 µg/mL
same,MIC,[29],100 µg/mL
same,MIC,[30],> 100 µg/mL
same,MIC,[31],100 µg/mL
same,MIC,[32],> 100 µg/mL
same,MIC,[33],100 µg/mL
CC[C@H]1OC(=O)[C@H](C)C(=O)[C@H](C)[C@@H](O[C@@H]2O[C@H](C)C[C@H](N(C)C)[C@H]2O)[C@](C)(OC)C[C@@H](C)C2=N[C@H](COCc3ccc(Cl)cc3)CN3C(=O)O[C@@]1(C)[C@H]3[C@H]2C [Example 79],MIC,[1],0.39 µg/mL
same,MIC,[2],> 100 µg/mL
same,MIC,[3],0.39 µg/mL
same,MIC,[4],0.01 µg/mL
same,MIC,[5],> 100 µg/mL
same,MIC,[6],> 100 µg/mL
same,MIC,[7],0.39 µg/mL
same,MIC,[8],> 100 µg/mL
same,MIC,[9],> 100 µg/mL
same,MIC,[10],0.1 µg/mL
same,MIC,[11],0.05 µg/mL
same,MIC,[12],0.39 µg/mL
same,MIC,[13],≤ 0.005 µg/mL
same,MIC,[14],1.56 µg/mL
same,MIC,[15],100 µg/mL
same,MIC,[16],0.39 µg/mL
same,MIC,[17],> 100 µg/mL
same,MIC,[18],0.01 µg/mL
same,MIC,[19],0.78 µg/mL
same,MIC,[20],> 100 µg/mL
same,MIC,[21],0.39 µg/mL
same,MIC,[22],> 100 µg/mL
same,MIC,[23],> 100 µg/mL
same,MIC,[24],3.1 µg/mL
same,MIC,[25],> 100 µg/mL
same,MIC,[26],0.39 µg/mL
same,MIC,[27],100 µg/mL
same,MIC,[28],50 µg/mL
same,MIC,[29],100 µg/mL
same,MIC,[30],> 100 µg/mL
same,MIC,[31],100 µg/mL
same,MIC,[32],> 100 µg/mL
same,MIC,[33],100 µg/mL
CC[C@H]1OC(=O)[C@H](C)C(=O)[C@H](C)[C@@H](O[C@@H]2O[C@H](C)C[C@H](N(C)C)[C@H]2O)[C@](C)(OC)C[C@@H](C)C2=N[C@H](COCc3cccc(Cl)c3)CN3C(=O)O[C@@]1(C)[C@H]3[C@H]2C [Example 80],MIC,[1],0.39 µg/mL
same,MIC,[2],> 100 µg/mL
same,MIC,[3],0.39 µg/mL
same,MIC,[4],≤ 0.005 µg/mL
same,MIC,[5],> 100 µg/mL
same,MIC,[6],> 100 µg/mL
same,MIC,[7],0.39 µg/mL
same,MIC,[8],> 100 µg/mL
same,MIC,[9],> 100 µg/mL
same,MIC,[10],0.05 µg/mL
same,MIC,[11],0.05 µg/mL
same,MIC,[12],0.2 µg/mL
same,MIC,[13],≤ 0.005 µg/mL
same,MIC,[14],1.56 µg/mL
same,MIC,[15],100 µg/mL
same,MIC,[16],0.2 µg/mL
same,MIC,[17],> 100 µg/mL
same,MIC,[18],0.01 µg/mL
same,MIC,[19],1.56 µg/mL
same,MIC,[20],> 100 µg/mL
same,MIC,[21],0.39 µg/mL
same,MIC,[22],> 100 µg/mL
same,MIC,[23],> 100 µg/mL
same,MIC,[24],3.1 µg/mL
same,MIC,[25],> 100 µg/mL
same,MIC,[27],100 µg/mL
same,MIC,[28],50 µg/mL
same,MIC,[29],100 µg/mL
same,MIC,[30],> 100 µg/mL
same,MIC,[31],100 µg/mL
same,MIC,[32],> 100 µg/mL
same,MIC,[33],100 µg/mL
CC[C@H]1OC(=O)[C@H](C)C(=O)[C@H](C)[C@@H](O[C@@H]2O[C@H](C)C[C@H](N(C)C)[C@H]2O)[C@](C)(OC)C[C@@H](C)C2=NC3CN(CCOC)CC3N3C(=O)O[C@@]1(C)[C@H]3[C@H]2C (stereo partly drawn) [Example 126],MIC,[1],1.56 µg/mL
same,MIC,[2],> 100 µg/mL
same,MIC,[3],1.56 µg/mL
same,MIC,[4],0.02 µg/mL
same,MIC,[5],> 100 µg/mL
same,MIC,[6],> 100 µg/mL
same,MIC,[7],1.56 µg/mL
same,MIC,[8],> 100 µg/mL
same,MIC,[9],> 100 µg/mL
same,MIC,[10],0.2 µg/mL
same,MIC,[11],0.2 µg/mL
same,MIC,[12],0.78 µg/mL
same,MIC,[13],0.05 µg/mL
same,MIC,[14],0.78 µg/mL
same,MIC,[15],> 100 µg/mL
same,MIC,[16],1.56 µg/mL
same,MIC,[17],> 100 µg/mL
same,MIC,[18],0.05 µg/mL
same,MIC,[19],12.5 µg/mL
same,MIC,[20],> 100 µg/mL
same,MIC,[22],> 100 µg/mL
same,MIC,[23],> 100 µg/mL
same,MIC,[24],3.1 µg/mL
same,MIC,[25],> 100 µg/mL
same,MIC,[27],> 100 µg/mL
same,MIC,[28],> 100 µg/mL
same,MIC,[29],> 100 µg/mL
same,MIC,[30],> 100 µg/mL
same,MIC,[31],> 100 µg/mL
same,MIC,[32],> 100 µg/mL
same,MIC,[33],100 µg/mL
